pIC50: −log10 of the molar value.
What was measured:
Type in all cases: cell-based, human
VCaP cells = assay: Anti-proliferative toxicity against prostate cancer cell line Vcap (CCK8); details: 3 days; for pIC50: CCK8
Outline: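 VCaP cells (DMEM, 10% FBS) seeded 20000 cells/well, cultured 72 h, then exposed in triplicate to compound at final well concentrations of 0.00001–0.16 μM for 3 days at 37 °C, 5% CO2. Viability by CCK8, 1–4 h at 37 °C, absorbance at 450 nm.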

22Rv1 cells = assay: Anti-proliferative toxicity against prostate cancer cell line 22Rv1 (CCK8); details: 3 days; for pIC50: CCK8
Outline: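 22Rv1 cells pre-cultured for 48 h, then exposed to compounds at 0.00001-1.0 μM final, in triplicate, for 3 days. Viability read by CCK8 absorbance at 450 nm after 1-4 h at 37 °C.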

PC-3 cells = assay: Anti-proliferative toxicity against prostate cancer cell line PC-3 (CCK8); details: 3 days
Outline: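 PC-3 cells (4000/well, pre-cultured 24 h) exposed in triplicate to compound at final 0.00001-1.0 μM for 3 days at 37 °C, 5% CO2. Viability read by CCK8, 1-4 h at 37 °C, absorbance at 450 nm.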

SMILES | pIC50 (VCaP cells; Homo sapiens, 72 h) | pIC50 (22Rv1 cells; Homo sapiens, 72 h) | pIC50 (PC-3 cells; Homo sapiens, 72 h) | also measured
C[C@]12CCC(=O)N[C@@H]1CC[C@@H]1[C@@H]2CC[C@]2(C)[C@@H](C(=O)Nc3cccc(N[C@@H]4CCC[C@@H](Nc5cccc6c5C(=O)N(C5CCC(=O)NC5=O)C6=O)C4)c3)CC[C@@H]12 (stereo partly drawn) [C81, N-(3-(N—(N-(4-(2-(3-(2,6-dioxopiperidine))-isoindole-1,3-dione))-1R,3R-cyclohexanediamine))phenyl)-3-oxo-4-aza-5α-androstane-17β-carboxamide] |  |  |  | pIC50 (VCaP cells): 8.00 to 10.00; pIC50 (22Rv1 cells): 8.00 to 10.00; pIC50 (PC-3 cells): 6.00 to 8.00
C[C@]12C=CC(=O)N[C@@H]1CC[C@@H]1[C@@H]2CC[C@]2(C)[C@@H](C(=O)Nc3cccc(OCCCNc4ccc5c(c4)C(=O)N(C4CCC(=O)NC4=O)C5=O)c3)CC[C@@H]12 (stereo partly drawn) [C30, N-(3-((3-((5-(2-(3-(2,6-dioxopiperidine))-isoindole-1,3-dione))amino)propyl)oxy)phenyl)-3-oxo-4-aza-5α-androst-1-ene-17β-carboxamide] | < 6.00 | < 6.00 | < 6.00 | 
C[C@]12C=CC(=O)N[C@@H]1CC[C@@H]1[C@@H]2CC[C@]2(C)[C@@H](C(=O)NCCCCCCCNc3cccc4c3C(=O)N(C3CCC(=O)NC3=O)C4=O)CC[C@@H]12 (stereo partly drawn) [C11, N-(7-((4-(2-(3-(2,6-dioxopiperidine))-isoindole-1,3-dione))amino)heptyl)-3-oxo-4-aza-5α-androst-1-ene-17β-carboxamide] | < 6.00 | < 6.00 | < 6.00 | 
C[C@]12C=CC(=O)N[C@@H]1CC[C@@H]1[C@@H]2CC[C@]2(C)[C@@H](C(=O)NCCCCCCCNc3ccc4c(c3)C(=O)N(C3CCC(=O)NC3=O)C4=O)CC[C@@H]12 (stereo partly drawn) [C12, N-(7-((5-(2-(3-(2,6-dioxopiperidine))-isoindole-1,3-dione))amino)heptyl)-3-oxo-4-aza-5α-androst-1-ene-17β-carboxamide] | < 6.00 | < 6.00 | < 6.00 | 
C[C@]12C=CC(=O)N[C@@H]1CC[C@@H]1[C@@H]2CC[C@]2(C)[C@@H](C(=O)NCCCCCCNc3ccc4c(c3)C(=O)N(C3CCC(=O)NC3=O)C4=O)CC[C@@H]12 (stereo partly drawn) [C10, N-(6-((5-(2-(3-(2,6-dioxopiperidine))-isoindole-1,3-dione))amino)hexyl)-3-oxo-4-aza-5α-androst-1-ene-17β-carboxamide] | < 6.00 | < 6.00 | < 6.00 | 
C[C@]12C=CC(=O)N[C@@H]1CC[C@@H]1[C@@H]2CC[C@]2(C)[C@@H](C(=O)N3CCC(CN4CCN(c5ccc6c(c5)C(=O)N(C5CCC(=O)NC5=O)C6=O)CC4)CC3)CC[C@@H]12 (stereo partly drawn) [C14, 1-(5-(2-(3-(2,6-dioxopiperidine))-isoindole-1,3-dione))-4-(4-(1-(3-oxo-4-aza-5α-androst-1-ene-17β-formyl)piperidine)methyl)-piperazine] | < 6.00 | < 6.00 | < 6.00 | 
C[C@]12C=CC(=O)N[C@@H]1CC[C@@H]1[C@@H]2CC[C@]2(C)[C@@H](C(=O)Nc3cccc(NCCCNc4cccc5c4C(=O)N(C4CCC(=O)NC4=O)C5=O)c3)CC[C@@H]12 (stereo partly drawn) [C50, N-(3-((3-((4-(2-(3-(2,6-dioxopiperidine))-isoindole-1,3-dione))amino)propyl)amino)phenyl)-3-oxo-4-aza-5α-androst-1-ene-17β-carboxamide] | 8.00 to 10.00 | 8.00 to 10.00 | 6.00 to 8.00 | Anti-proliferative toxicity data in VCaP cells (VCaP cells; 0.00005 μM): 1.2%; Anti-proliferative toxicity data in VCaP cells (VCaP cells; 0.00010 μM): 22.8%; Anti-proliferative toxicity data in VCaP cells (VCaP cells; 0.00030 μM): 72.3%; Anti-proliferative toxicity data in VCaP cells (VCaP cells; 0.00100 μM): 86.6%; Anti-proliferative toxicity data in VCaP cells (VCaP cells; 0.00300 μM): 90.5%; Anti-proliferative toxicity data in VCaP cells (VCaP cells; 0.00600 μM): 90.7%; Anti-proliferative toxicity data in VCaP cells (VCaP cells; 0.03200 μM): 91.5%; Anti-proliferative toxicity data in VCaP cells (VCaP cells; 0.16000 μM): 91.7%; Anti-proliferative toxicity data in 22Rv1 cells (22Rv1 cells; 0.00006 μM): 6.6%; Anti-proliferative toxicity data in 22Rv1 cells (22Rv1 cells; 0.00032 μM): 45.2%; Anti-proliferative toxicity data in 22Rv1 cells (22Rv1 cells; 0.00160 μM): 78.4%; Anti-proliferative toxicity data in 22Rv1 cells (22Rv1 cells; 0.00800 μM): 80.7%; Anti-proliferative toxicity data in 22Rv1 cells (22Rv1 cells; 0.04000 μM): 75.0%; Anti-proliferative toxicity data in 22Rv1 cells (22Rv1 cells; 0.20000 μM): 80.6%; Anti-proliferative toxicity data in 22Rv1 cells (22Rv1 cells; 1.00000 μM): 81.5%
CC(C)(C)C(=O)OCN1C(=O)CC[C@H](N2C(=O)c3cccc(N[C@@H]4CCC[C@@H](Nc5cccc(NC(=O)[C@H]6CC[C@H]7[C@@H]8CC[C@H]9NC(=O)C=C[C@]9(C)[C@H]8CC[C@]67C)c5)C4)c3C2=O)C1=O [C67, N-(3-(N—(N-(4-(2-(3S-(1-pivaloyloxymethyl-2,6-dioxopiperidine))-isoindole-1,3-dione))-1R,3R-cyclohexanediamine))phenyl)-3-oxo-4-aza-5α-androst-1-ene-17β-carboxamide] | ≥ 10.00 | 8.00 to 10.00 | 8.00 to 10.00 | 
C[C@]12C=CC(=O)N[C@@H]1CC[C@@H]1[C@@H]2CC[C@]2(C)[C@@H](C(=O)Nc3cccc(N[C@@H]4CNC[C@@H](Nc5cccc6c5C(=O)N(C5CCC(=O)NC5=O)C6=O)C4)c3)CC[C@@H]12 (stereo partly drawn) [C76, N-(3-(N—(N-(4-(2-(3-(2,6-dioxopiperidine))-isoindole-1,3-dione))-piperidine-3S,5S-diamine))phenyl)-3-oxo-4-aza-5α-androst-1-ene-17β-carboxamide] | 6.00 to 8.00 | 6.00 to 8.00 | 6.00 to 8.00 | 
C[C@]12C=CC(=O)N[C@@H]1CC[C@@H]1[C@@H]2CC[C@]2(C)[C@@H](C(=O)NCCCNc3cccc4c3C(=O)N(C3CCC(=O)NC3=O)C4=O)CC[C@@H]12 (stereo partly drawn) [C3, N-(3-((4-(2-(3-(2,6-dioxopiperidine))-isoindole-1,3-dione))amino)propyl)-3-oxo-4-aza-5α-androst-1-ene-17β-carboxamide] | < 6.00 | < 6.00 | < 6.00 | 
C[C@]12C=CC(=O)N[C@@H]1CC[C@@H]1[C@@H]2CC[C@]2(C)[C@@H](C(=O)Nc3cccc(N[C@H]4CCC[C@H](Nc5cccc6c5C(=O)N(C5CCC(=O)NC5=O)C6=O)C4)c3)CC[C@@H]12 (stereo partly drawn) [C60, N-(3-(N—(N-(4-(2-(3-(2,6-dioxopiperidine))-isoindole-1,3-dione))-1S,3S-cyclohexanediamine))phenyl)-3-oxo-4-aza-5α-androst-1-ene-17β-carboxamide] | 6.00 to 8.00 | 6.00 to 8.00 | < 6.00 | 
C[C@]12C=CC(=O)N[C@@H]1CC[C@@H]1[C@@H]2CC[C@]2(C)[C@@H](C(=O)Nc3ccc(OCCCCCCCNc4cccc5c4C(=O)N(C4CCC(=O)NC4=O)C5=O)cc3)CC[C@@H]12 (stereo partly drawn) [C23, N-(4-((7-((4-(2-(3-(2,6-dioxopiperidine))-isoindole-1,3-dione))amino)heptyl)oxy)phenyl)-3-oxo-4-aza-5α-androst-1-ene-17β-carboxamide] | < 6.00 | < 6.00 | < 6.00 | 
CN1C[C@@H](Nc2cccc(NC(=O)[C@H]3CC[C@H]4[C@@H]5CC[C@H]6NC(=O)C=C[C@]6(C)[C@H]5CC[C@]34C)c2)C[C@H](Nc2cccc3c2C(=O)N(C2CCC(=O)NC2=O)C3=O)C1 (stereo partly drawn) [C77, N-(3-(N—(N-(4-(2-(3-(2,6-dioxopiperidine))-isoindole-1,3-dione))-1-methylpiperidine-3S,5S-diamine))phenyl)-3-oxo-4-aza-5α-androst-1-ene-17β-carboxamide] | 6.00 to 8.00 | 6.00 to 8.00 | 6.00 to 8.00 | 
C[C@]12C=CC(=O)N[C@@H]1CC[C@@H]1[C@@H]2CC[C@]2(C)[C@@H](C(=O)Nc3cccc(OCCCCNc4ccc5c(c4)C(=O)N(C4CCC(=O)NC4=O)C5=O)c3)CC[C@@H]12 (stereo partly drawn) [C32, N-(3-((4-((5-(2-(3-(2,6-dioxopiperidine))-isoindole-1,3-dione))amino)butyl)oxy)phenyl)-3-oxo-4-aza-5α-androst-1-ene-17β-carboxamide] | < 6.00 | < 6.00 | < 6.00 | 
Cc1ccc(NC(=O)[C@H]2CC[C@H]3[C@@H]4CC[C@H]5NC(=O)C=C[C@]5(C)[C@H]4CC[C@]23C)cc1OCCCNc1cccc2c1C(=O)N(C1CCC(=O)NC1=O)C2=O (stereo partly drawn) [C52, N-(3-((3-((4-(2-(3-(2,6-dioxopiperidine))-isoindole-1,3-dione))amino)propyl)oxy)-4-methyl-phenyl)-3-oxo-4-aza-5α-androst-1-ene-17β-carboxamide] | < 6.00 | < 6.00 | < 6.00 | 
C[C@]12C=CC(=O)N[C@@H]1CC[C@@H]1[C@@H]2CC[C@]2(C)[C@@H](C(=O)NCCCCNc3ccc4c(c3)C(=O)N(C3CCC(=O)NC3=O)C4=O)CC[C@@H]12 (stereo partly drawn) [C6, N-(4-((5-(2-(3-(2,6-dioxopiperidine))-isoindole-1,3-dione))amino)butyl)-3-oxo-4-aza-5α-androst-1-ene-17β-carboxamide] | < 6.00 | < 6.00 | < 6.00 | 
C[C@]12C=CC(=O)N[C@@H]1CC[C@@H]1[C@@H]2CC[C@]2(C)[C@@H](C(=O)Nc3ccc(OCCNc4ccc5c(c4)C(=O)N(C4CCC(=O)NC4=O)C5=O)cc3)CC[C@@H]12 (stereo partly drawn) [C16, N-(4-((2-((5-(2-(3-(2,6-dioxopiperidine))-isoindole-1,3-dione))amino)ethyl)oxy)phenyl)-3-oxo-4-aza-5α-androst-1-ene-17β-carboxamide] | < 6.00 | < 6.00 | < 6.00 | 

— patent publication US20250213701A1, “MEDICAMENT FOR TREATING HUMAN TUMOR BASED ON ERF3A-TARGETING PROTEOLYSIS MECHANISM” (SUZHOU DEGEN BIO-MEDICAL CO., LTD., priority 2022, published 2025)
